Values quoted from earlier work, collected in US8648060B2, “Use of 3-alpha-androstanediol in combination with a 5-HT1a agonist, in the treatment of sexual dysfunction” (Emotional Brain B.V., priority 2006, dated 2014).

Details: serum concentration; capsule

In the case of `CCCc1nn(C)c2c(=O)[nH]c(-c3cc(S(=O)(=O)N4CCN(C)CC4)ccc3OCC)nc12.O=C(O)CC(O)(CC(=O)O)C(=O)O` [sildenafil, 1-[[3-(6,7-dihydro-1-methyl-7-oxo-3-propyl-1Hpyrazolo[4,3-d]pyrimidin-5-yl)-4-ethoxyphenyl]sulfonyl]-4-methylpiperazine citrate], the Tmax of sildenafil is listed as 0.5 to 2 h and the T½ is listed as 3.5 h.
